For one assay, the system named is Akt. The assay is described as follows: Akt assay (ELISA based activity kit). Format: biochemical. On the procedure: Akt activity kit is an ELISA based activity kit that utilizes biotinylated peptide substrate (GRPRTSSFAEG) that is phosphorylated on second serine by Akt1, Akt2, Akt3, SGK and MSK1. Biotinylated Akt substrate and sample containing Akt are incubated in presence of ATP in the wells of a streptavidin coated 96-well plate, which allows for phosphorylation and substrate capture in a single step. The phosphorylated substrate is detected using phosphoserine detection antibody followed by HRP-antibody conjugate and color development with TMB substrate. Sensitivity is increased by addition of ELISA stop solution and relative activity is determined by reading dual absorbance at 450/540 nm or 450/595 nm. Inhibition profiles can be generated based on Akt activity in the presence and absence of test inhibitor(s).
(In general: In an ELISA, binding on a coated surface is turned into a signal by an enzyme label.)

The test system of the next assay is HCT116. Description: Quantification of apoptosis by ELISA, HCT116. Format: cell-based. Particulars: HCT116, 72 hours; control 0.35. On the procedure:
(§1) The Cell Apoptosis ELISA Detection Kit (Roche, Palo Alto, Calif.) was used to detect apoptosis in COLO357 cells, with different treatments according to the manufacturer's protocol. Briefly, COLO357 cells were treated with […] of Compound 1 and Compound 2 for 72 hours. After treatment, the cytoplasmic histone DNA fragments from COLO 357 cells with different treatments were extracted and bound to immobilized anti-histone antibody.
(§2) Subsequently, the peroxidase-conjugated anti-DNA antibody was used for the detection of immobilized histone DNA fragments. After addition of substrate for peroxidase, the spectrophotometric absorbance of the samples was determined using ULTRA Multifunctional Microplate Reader (TECAN) at 405 nm. A similar protocol was used for BxPC3, PC3 and HCT116 cell lines.

For assay [1], the system named is COLO 357 cells (K-ras mutated pancreatic cancer). Description: MTT cell growth inhibition assay, COLO357. The class given is cell-based. The settings on record: COLO357, 72 h; read-out: MTT Assay EC50 after 72 h. The procedure:
(§3) COLO 357 cells (K-ras mutated pancreatic cancer) were seeded at a density of 3×10^3 cells per well in 96-well microtiter culture plates. After overnight incubation, medium was removed and replaced with fresh medium containing different concentrations of compounds (0-100 μmol/L) diluted from a 10 mmol/L stock. On completion of 72 hours of incubation, 20 μL of 3-(4,5-dimethylthiazol-2-yl)-2,5-diphenyltetrazolium bromide (MTT) solution (5 mg/mL in PBS) were added to each well and incubated further for 2 hours. Upon termination, the supernatant was aspirated and the MTT formazan formed by metabolically viable cells was dissolved in 100 μL of isopropanol. The plates were mixed for 30 minutes on a gyratory shaker, and absorbance was measured at 595 nm using a plate reader (TECAN, Durham, N.C.). A similar protocol was used for BxPC3 (wild type K-Ras pancreatic cancer), PC3 (prostate cancer) and HCT (colon cancer) cell lines.
(§4) Cells were plated as described above and allowed to attach overnight. The cells were replaced with fresh medium containing 25 μmol/L of Compound 1 and Compound 2 for 72 hours. The effect of Compound 1 and Compound 2 pretreatment on cell viability was examined by the MTT assay method as described above.

A further assay deals with PC3. The assay is described as follows: Quantification of apoptosis by ELISA, PC3. The class given is cell-based. Particulars: PC3, 72 hours; control 0.50. On the procedure: as §1, §2
A further assay relates to HCT116 (colon cancer). The assay is described as follows: MTT cell growth inhibition assay, HCT116. The class given is cell-based. The settings on record: HCT116, 72 h; read-out: MTT Assay EC50 after 72 h. On the procedure: as §3, §4
A further assay has as its system PC3 (prostate cancer). The assay is described as follows: MTT cell growth inhibition assay, PC3. The class given is cell-based. The settings on record: PC3, 72 h; read-out: MTT Assay EC50 after 72 h. The procedure:
as §3, §4

Another assay has as its system COLO357 cells. The assay is described as follows: Quantification of apoptosis by ELISA, COLO357. The class given is cell-based. Particulars: COLO357, 72 hours; control 0.75. The procedure:
as §1, §2

Assay [2] deals with BxPC3 (wild type K-Ras pancreatic cancer). The assay is described as follows: MTT cell growth inhibition assay, BxPC3. Particulars: BxPC3, 72 h; read-out: MTT Assay EC50 after 72 h. The class given is cell-based. The procedure:
as §3, §4

In a further assay the test system is BxPC3. The assay is described as follows: Quantification of apoptosis by ELISA, BxPC3. The class given is cell-based. Particulars: BxPC3, 25 mmol/L, 72 hours; control 0.50. On the procedure:
as §1, §2

Take “Cu(II) complex of (2Z)-2-(N-hydroxyimino)-N′-[(1Z)-1H-indol-3-ylmethylidene]-1,3-dioxobutanehydrazide [Compound 2]”: in the assay on Akt, the Akt inhibitory activity result was “micromolar range”. Further, the “O.D. Of Histone/DNA at 405 nm” value amounted to 1.75 in the assay with HCT116, 1.90 in the assay on PC3, 2.00 in the assay with COLO357 cells and 1.80 in the assay with BxPC3. Moreover, the EC50 (usually the concentration at which the effect is half-maximal) in assay [1] came out at 14.3 µM; in the assay with HCT116 (colon cancer), 14.1 µM; with PC3 (prostate cancer), 16.6 µM; in [2], 18.9 µM.
As to “Cu(II) complex of 2-amino-3-[(Z)—N′-(1H-indol-3-ylmethylidene)hydrazinecarbonyl]-propanoic acid [Compound 1]”, in the assay on Akt, the Akt inhibitory activity result was “micromolar range”. Moreover, the “O.D. Of Histone/DNA at 405 nm” value in the assay on HCT116 was 1.60; with PC3, 0.60; in the assay on COLO357 cells, 1.90; in the assay on BxPC3 it was 2.20. Further, the concentration giving a half-maximal response (EC50) in assay [1] stood at 14.6 µM; in the assay with HCT116 (colon cancer), 11.7 µM; in the assay on PC3 (prostate cancer), 28.8 µM; in [2], 28.9 µM.

Values taken from patent publication US7781480B2, “Indole derivatives and their metal conjugates and uses thereof” (VLife Sciences Technologies Pvt. Ltd., priority 2007, dated 2010).
